Patent publication US11311567B2, “Cytochrome P450 enzyme complexes and methods of treatment using the same” (Innovation Hammer LLC, priority 2004, dated 2022)

Tests used:
human CPR (hCPR) = experiment: NADPH-dependent reduction of cytochrome C by CPR in microsomes after treatment with substrates; format: biochemical; conditions: microsomes quantified against CPR and Cc; Cc oxidase activity inhibited by potassium cyanide
Description: The following example illustrates an application of human P450 compositions according to the present invention. Procedures followed previously described methods, e.g., U.S. Pat. No. 6,020,288; M. Markwell, et al., Methods of Enzymology 72:296-303 (1981); C. A. Mihaliak, et al., Methods in plant biochemistry 19:261-279 (1993); R. Donaldson, et al., Arch. Biochem. Biophys. 152:199-215 (1972); and M. Persans, et al., Plant Physiol. 109:1483-1490 (1995)).
Methods. CPR substrates have been assayed on various tissues (e.g., U.S. Pat. No. 6,020,288); therefore, response to human CPR (hCPR) was examined under controlled conditions on live index organisms. The direct effects of substrates on hCPR were measured by preparation of microsomes for quantification against CPR and Cc. Controls included equal concentrations of each individual treatment or substrate in surfactant and water. Untreated controls were maintained under identical conditions of culture. Oxidase activity of Cc was inhibited by potassium cyanide. The reaction was initiated by addition of Cc wherein NADPH-dependent reduction of Cc was monitored for increases in absorbance.

[1] = basis for selecting preferred oxidants; cited from earlier work

In the case of `Cc1cc2nc3c(=O)[nH]c(=O)nc-3n(C[C@H](O)[C@H](O)[C@H](O)COP(=O)(O)O)c2cc1C` [FMN, flavin mononucleotide], the “induction relative to components tested” value (human CPR (hCPR)) is given as “over 4.5 times” and the “one-electron reduction potential (E0)” value [1] is given as −313 mV.

In the case of `O=C(O)CO` [glycolate], the “one-electron reduction potential (E0)” value [1] is listed as −290 mV.

For nitrobenzoate, the “one-electron reduction potential (E0)” value [1] is listed as −396 mV.
